Measured values taken from US20230382923A1, “FUSED TETRACYCLIC QUINAZOLINE DERIVATIVES AS INHIBITORS OF ERBB2” (EnLiven Therapeutics, Inc., priority 2021, published 2023).
Read-outs that look alike come from different tables or passages of the source.

Columns and labels:
Ba/F3 ERBB2 YVMA = test: Cell viability assay (CellTiter Glo, 72 hours); format: cell-based, mouse
Experimental: Cells were treated with compounds, and cell viability was measured as a metric of kinase inhibition.
BT-474, A431, MDA-MB-175VII, NCI-H1781, MCF7, and Ba/F3 cell lines were tested. The Ba/F3 cell line is IL-3-dependent mouse cell line derived from the C3H mouse strain. Ba/F3 cell lines were engineered to express human ERBB2 or EGFR kinases, rendering the cells IL-3 independent. The lines were generated via retroviral transduction utilizing a Moloney murine leukemia virus (MMLV) promoter, and constructs are stably integrated into the cell genome. The sequences of the ERBB2 and EGFR genes used were NCBI Reference Sequences NM_004448.3 and NM_005228.3, respectively.
BT-474, A431, MDA-MB-175VII, NCI-H1781 and MCF7 cells were grown in the appropriate growth medium as described in Table B2 below, and harvested at 50-80% confluence. BT-474, A431, MDA-MB-175VII, NCI-H1781 and MCF7 cells were counted and seeded at 2,000 or 1,500 cells per well in 384-well tissue culture plates (see Table B2). Similarly, Ba/F3 cell lines engineered to express EGFR, ERBB2, or ERBB2 mutants were grown, harvested, counted and seeded at 3000 cells per well in 96-well plates. A subset of wells contained media only (low control, “LC”).
Table B1 provides the growth media and number of cells seeded per well for the each cell line.
Compounds were dissolved in DMSO and serially diluted. Serially-diluted compound or a DMSO only control (high control, “HC”) was added to the plated cells in each well. Compounds were tested at concentrations of about 10 μM to 0.51 nM, using three-fold dilutions. The final proportion of DMSO never exceeded 0.1%.
Plates were placed in a 37° C., 5% CO2 incubator for 72 hours. Plates were then removed from the incubator and equilibrated for 15 minutes at room temperature. 40 μl of CellTiter Glo reagent (Promega) was added to measure the relative level of metabolically active cells by quantifying intracellular ATP concentrations. Plates were incubated for 30 minutes at room temperature, and luminescence was measured. Percent viability was normalized to a vehicle control only using the following formula: % viability=100×(LumSample−LumLC)/(LumHC−LumLC). Graphical curves were fitted using a nonlinear regression model with a sigmoidal dose response.

[1] = biological target: phosphorylated EGFR (pEGFR) (Homo sapiens (Human), UniProt P00533); test: Detection of phosphorylated EGFR (pEGFR) by AlphaLISA in A431 cells; format: cell-based; details: A431 cells (10% FBS), 4 hours incubation, EGF 30 ng/mL for 10 minutes
Summary of the method: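 A431 cells in 10% FBS exposed to compound for 4 h at 37 °C, then stimulated 10 min with 30 ng/mL EGF. Lysates assayed for phospho-EGFR by AlphaLISA. % inhibition relative to DMSO and staurosporine controls; IC50 from four-parameter curve fit.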

[2] = biological target: phosphorylated ERBB2 (pERBB2) (Homo sapiens (Human), UniProt P04626); test: Detection of phosphorylated ERBB2 (pERBB2) by ELISA in BT-474 cells; format: cell-based; details: four hours incubation with compound
Summary of the method: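 BT-474 cells were exposed to serially diluted compounds for 4 h at 37 °C, then lysed. Phospho-ERBB2 in lysates was captured by ELISA and detected with an HRP anti-phosphotyrosine antibody and TMB.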

[3] = Ba/F3 cells engineered to express human ERBB2 YVMA mutant, 72 hours, CellTiter Glo viability, read-out: Ba/F3 ERBB2 YVMA, IC50
[4] = Mus musculus, BaF3, 72 h, read-out: Ba/F3 ERBB2 YVMA, IC50, nM
[5] = Mus musculus, BaF3, 72 h, Ba/F3 cells engineered to express human ERBB2 YVMA mutant, 72 hours, CellTiter Glo viability, read-out: Ba/F3 ERBB2 YVMA, IC50

Sequence of phosphorylated ERBB2 (pERBB2) (P04626 23-1255): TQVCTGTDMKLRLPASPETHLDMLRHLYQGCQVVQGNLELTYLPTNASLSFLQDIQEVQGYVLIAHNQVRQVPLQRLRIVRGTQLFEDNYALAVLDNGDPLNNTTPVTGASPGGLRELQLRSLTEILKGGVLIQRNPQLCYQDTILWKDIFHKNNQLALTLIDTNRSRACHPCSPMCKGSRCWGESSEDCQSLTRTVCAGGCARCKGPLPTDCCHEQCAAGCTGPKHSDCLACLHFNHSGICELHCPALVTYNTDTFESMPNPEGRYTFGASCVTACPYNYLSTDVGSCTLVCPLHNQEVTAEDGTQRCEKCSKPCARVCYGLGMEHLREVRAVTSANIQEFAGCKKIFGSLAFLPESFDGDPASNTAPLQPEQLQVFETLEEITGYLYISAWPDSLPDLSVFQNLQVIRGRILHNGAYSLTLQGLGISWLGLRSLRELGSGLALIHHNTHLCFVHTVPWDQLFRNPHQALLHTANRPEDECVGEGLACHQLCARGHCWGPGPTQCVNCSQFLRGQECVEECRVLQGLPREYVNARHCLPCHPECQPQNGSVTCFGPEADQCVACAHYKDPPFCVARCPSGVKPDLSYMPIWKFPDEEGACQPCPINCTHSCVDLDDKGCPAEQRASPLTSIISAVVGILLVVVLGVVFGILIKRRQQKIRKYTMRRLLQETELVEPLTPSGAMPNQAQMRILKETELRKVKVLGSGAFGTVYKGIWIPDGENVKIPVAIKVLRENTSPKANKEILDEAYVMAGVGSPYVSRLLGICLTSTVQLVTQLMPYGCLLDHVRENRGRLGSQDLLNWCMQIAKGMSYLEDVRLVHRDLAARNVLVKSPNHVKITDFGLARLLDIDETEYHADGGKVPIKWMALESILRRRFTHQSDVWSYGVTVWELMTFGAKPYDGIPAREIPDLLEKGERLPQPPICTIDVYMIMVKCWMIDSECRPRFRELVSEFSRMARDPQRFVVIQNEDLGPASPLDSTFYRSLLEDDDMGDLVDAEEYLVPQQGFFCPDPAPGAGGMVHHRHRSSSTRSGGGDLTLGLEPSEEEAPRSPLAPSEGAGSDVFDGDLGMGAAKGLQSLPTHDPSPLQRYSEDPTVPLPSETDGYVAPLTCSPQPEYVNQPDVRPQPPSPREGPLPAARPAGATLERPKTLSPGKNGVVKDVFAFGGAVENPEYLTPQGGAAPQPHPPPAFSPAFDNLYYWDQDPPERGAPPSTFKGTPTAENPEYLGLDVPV
Sequence of phosphorylated EGFR (pEGFR) (P00533 25-1210): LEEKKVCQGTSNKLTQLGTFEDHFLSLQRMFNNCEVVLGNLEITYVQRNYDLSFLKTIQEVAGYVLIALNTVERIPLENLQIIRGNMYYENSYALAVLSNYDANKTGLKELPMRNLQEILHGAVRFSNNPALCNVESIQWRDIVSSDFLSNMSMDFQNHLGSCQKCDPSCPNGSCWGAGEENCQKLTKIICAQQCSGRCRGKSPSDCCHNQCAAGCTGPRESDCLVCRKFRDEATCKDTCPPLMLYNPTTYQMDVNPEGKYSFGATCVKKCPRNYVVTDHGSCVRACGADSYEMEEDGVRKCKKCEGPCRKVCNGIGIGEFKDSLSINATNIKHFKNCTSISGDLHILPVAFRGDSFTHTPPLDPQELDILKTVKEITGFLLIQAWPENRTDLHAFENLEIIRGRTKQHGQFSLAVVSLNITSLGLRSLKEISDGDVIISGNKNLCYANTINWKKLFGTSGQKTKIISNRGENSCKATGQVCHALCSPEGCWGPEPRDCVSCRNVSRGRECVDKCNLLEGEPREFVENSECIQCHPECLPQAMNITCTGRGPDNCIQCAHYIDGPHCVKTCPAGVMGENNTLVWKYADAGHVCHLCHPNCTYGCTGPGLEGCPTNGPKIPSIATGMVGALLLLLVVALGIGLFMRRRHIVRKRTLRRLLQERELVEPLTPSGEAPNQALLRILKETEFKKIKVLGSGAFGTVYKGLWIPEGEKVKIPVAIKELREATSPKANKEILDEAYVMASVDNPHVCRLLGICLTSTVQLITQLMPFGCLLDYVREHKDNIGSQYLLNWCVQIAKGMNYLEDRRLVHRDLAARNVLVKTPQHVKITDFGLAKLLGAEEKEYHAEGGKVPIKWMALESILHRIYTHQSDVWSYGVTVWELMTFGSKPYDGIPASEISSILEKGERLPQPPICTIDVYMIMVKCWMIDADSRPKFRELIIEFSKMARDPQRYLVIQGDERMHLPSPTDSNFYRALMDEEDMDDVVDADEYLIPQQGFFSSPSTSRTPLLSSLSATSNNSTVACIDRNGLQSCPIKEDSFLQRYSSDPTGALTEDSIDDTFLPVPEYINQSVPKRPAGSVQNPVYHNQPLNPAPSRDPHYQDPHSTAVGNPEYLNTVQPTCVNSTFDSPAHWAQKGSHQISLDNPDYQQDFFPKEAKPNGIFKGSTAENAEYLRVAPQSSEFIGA

| IC50 (Ba/F3 ERBB2 YVMA; [3]) | IC50 (Ba/F3 ERBB2 YVMA; [5]) | Structure (SMILES) | IC50 [1] | IC50 (Ba/F3 ERBB2 YVMA; [4]) | IC50 [2] |
| --- | --- | --- | --- | --- | --- |
| 5.88 nM | – | Cc1cc(Nc2ncnc3cc4c(nc23)N2CCCN(C(=O)/C=C/CN(C)C)C(CO4)C2)ccc1Oc1ccn2ncnc2c1 (single isomer, unassigned) [Example S55, Enantiomer 1, (E)-1-(4-((4-([1,2,4]triazolo[1,5-a]pyridin-7-yloxy)-3-methylphenyl)amino)-8,9,11,12-tetrahydro-6,11-methanopyrimido[4′,5′:5,6]pyrido[3,2-b][1,4,8]oxadiazecin-10 (7H)-yl)-4-(dimethylamino)but-2-en-1-one Enantiomer 1] | > 10000 nM | – | – |
| > 500 nM | – | Cc1cc(Nc2ncnc3cc4c(nc23)N2CCCN(C(=O)/C=C/CN(C)C)C(CO4)C2)ccc1Oc1ccn2ncnc2c1 (single isomer, unassigned) [Example S55, Enantiomer 2, (E)-1-(4-((4-([1,2,4]triazolo[1,5-a]pyridin-7-yloxy)-3-methylphenyl)amino)-8,9,11,12-tetrahydro-6,11-methanopyrimido[4′,5′:5,6]pyrido[3,2-b][1,4,8]oxadiazecin-10 (7H)-yl)-4-(dimethylamino)but-2-en-1-one Enantiomer 2] | > 10000 nM | – | – |
| – | – | C=CC(=O)N1CCN2CC1COc1cc3ncnc(Nc4ccc(Oc5ccn6ncnc6c5)c(C)c4)c3nc12 (stereo in doubt) [Compound 1, 1-((10S)-4-((4-([1,2,4]triazolo[1,5-a]pyridin-7-yloxy)-3-methylphenyl)amino)-7,8,10,11-tetrahydro-9H-6,10-methanopyrimido[4′,5′:5,6]pyrido[3,2-b][1,4,7]oxadiazonin-9-yl)prop-2-en-1-one] | 450 nM | 7.77 nM | 9.77 nM |
| – | – | C=CC(=O)N1CCN2CC1COc1cc3ncnc(Nc4ccc(Oc5ccn6ncnc6c5)c(C)c4)c3nc12 (stereo in doubt) [Compound 2, 1-((10R)-4-((4-([1,2,4]triazolo[1,5-a]pyridin-7-yloxy)-3-methylphenyl)amino)-7,8,10,11-tetrahydro-9H-6,10-methanopyrimido[4′,5′:5,6]pyrido[3,2-b][1,4,7]oxadiazonin-9-yl)prop-2-en-1-one] | > 10000 nM | 116 nM | 422 nM |
| – | – | C=CC(=O)N1CCN2CC1COc1cc3ncnc(Nc4ccc(Oc5ccc6c(c5)ncn6C)c(C)c4)c3cc12 (stereo in doubt) [Compound 3, 1-((10S)-4-((3-methyl-4-((1-methyl-1H-benzo[d]imidazol-5-yl)oxy)phenyl)amino)-7,8,10,11-tetrahydro-9H-6,10-methano[1,4,7]oxadiazonino[3,2-g]quinazolin-9-yl)prop-2-en-1-one] | 1470 nM | 18 nM | 28.3 nM |
| – | – | C=CC(=O)N1CCN2CC1COc1cc3ncnc(Nc4ccc(Oc5ccn6ncnc6c5)c(C)c4)c3cc12 (stereo in doubt) [Compound 4, 1-((10S)-4-((4-([1,2,4]triazolo[1,5-a]pyridin-7-yloxy)-3-methylphenyl)amino)-7,8,10,11-tetrahydro-9H-6,10-methano[1,4,7]oxadiazonino[3,2-g]quinazolin-9-yl)prop-2-en-1-one] | 1860 nM | 8.63 nM | 7.36 nM |
| – | – | C=CC(=O)N1CCN2CC1COc1cc3ncnc(Nc4ccc(Oc5ccn6ncnc6c5)c(C)c4)c3cc12 (stereo in doubt) [Compound 5, 1-((10R)-4-((4-([1,2,4]triazolo[1,5-a]pyridin-7-yloxy)-3-methylphenyl)amino)-7,8,10,11-tetrahydro-9H-6,10-methano[1,4,7]oxadiazonino[3,2-g]quinazolin-9-yl)prop-2-en-1-one] | > 10000 nM | 304 nM | 1200 nM |
| – | > 500 nM | Cc1cc(Nc2ncnc3cc4c(cc23)N2CCN(C(=O)/C=C/CN(C)C)C(CO4)C2)ccc1Oc1ccn2ncnc2c1 (stereo in doubt) [Compound 8, (E)-1-((10R)-4-((4-([1,2,4]triazolo[1,5-a]pyridin-7-yloxy)-3-methylphenyl)amino)-7,8,10,11-tetrahydro-9H-6,10-methano[1,4,7]oxadiazonino[3,2-g]quinazolin-9-yl)-4-(dimethylamino)but-2-en-1-one] | > 10000 nM | – | 547 nM |
| – | – | C=CC(=O)N1CCN2CC1COc1cc3ncnc(Nc4ccc(Oc5ccc6c(c5)ncn6C)c(C)c4)c3nc12 (stereo in doubt) [Compound 14, 1-((10S)-4-((3-methyl-4-((1-methyl-1H-benzo[d]imidazol-5-yl)oxy)phenyl)amino)-7,8,10,11-tetrahydro-9H-6,10-methanopyrimido[4′,5′:5,6]pyrido[3,2-b][1,4,7]oxadiazonin-9-yl)prop-2-en-1-one] | 532 nM | 21.6 nM | 43.8 nM |
| – | > 500 nM | CC#CC(=O)N1CCN2CC1COc1cc3ncnc(Nc4ccc(Oc5ccn6ncnc6c5)c(C)c4)c3cc12 (stereo in doubt) [Compound 17, 1-((10R)-4-((4-([1,2,4]triazolo[1,5-a]pyridin-7-yloxy)-3-methylphenyl)amino)-7,8,10,11-tetrahydro-9H-6,10-methano[1,4,7]oxadiazonino[3,2-g]quinazolin-9-yl)but-2-yn-1-one] | > 10000 nM | – | 1050 nM |
| – | – | C=CC(=O)N1CCN2CC1COc1cc3ncnc(Nc4ccc(Oc5ccc(C)nc5)c(C)c4)c3nc12 (stereo in doubt) [Compound 20, 1-((10S)-4-((3-methyl-4-((6-methylpyridin-3-yl)oxy)phenyl)amino)-7,8,10,11-tetrahydro-9H-6,10-methanopyrimido[4′,5′:5,6]pyrido[3,2-b][1,4,7]oxadiazonin-9-yl)prop-2-en-1-one] | 192 nM | 5.28 nM | 21.1 nM |
| – | – | C=CC(=O)N1CCN2CC1COc1cc3ncnc(Nc4ccc(Oc5ccc(CC)nc5)c(C)c4)c3nc12 (stereo in doubt) [Compound 22, 1-((10S)-4-((4-((6-ethylpyridin-3-yl)oxy)-3-methylphenyl)amino)-7,8,10,11-tetrahydro-9H-6,10-methanopyrimido[4′,5′:5,6]pyrido[3,2-b][1,4,7]oxadiazonin-9-yl)prop-2-en-1-one] | 684 nM | 56.1 nM | 70 nM |
| – | – | CN(C)C/C=C/C(=O)N1CCN2C[C@H]1COc1cc3ncnc(Nc4cc(F)c(Oc5ccn6ncnc6c5)cc4F)c3nc12 [Compound 48, (E)-1-((10S)-4-((4-([1,2,4]triazolo[1,5-a]pyridin-7-yloxy)-2,5-difluorophenyl)amino)-7,8,10,11-tetrahydro-9H-6,10-methanopyrimido[4′,5′:5,6]pyrido[3,2-b][1,4,7]oxadiazonin-9-yl)-4-(dimethylamino)but-2-en-1-one] | 3300 nM | – | 10.8 nM |
| – | – | Cc1cc(Nc2ncnc3cc4c(nc23)N2CCN(C(=O)/C=C/CN(C)C)C(CCO4)C2)ccc1Oc1ccn2ncnc2c1 (stereo not shown) [Compound 52, (E)-1-(4-((4-([1,2,4]triazolo[1,5-a]pyridin-7-yloxy)-3-methylphenyl)amino)-7,8,11,12-tetrahydro-6,10-methanopyrimido[4′,5′:5,6]pyrido[3,2-b][1,4,7]oxadiazecin-9 (10H)-yl)-4-(dimethylamino)but-2-en-1-one] | > 10000 nM | – | 635 nM |
| – | – | Cc1cc(Nc2ncnc3cc4c(nc23)N2CCN(C(=O)/C=C/CN(C)C)CC(CO4)C2)ccc1Oc1ccn2ncnc2c1 (stereo not shown) [Compound 57, (E)-1-(4-((4-([1,2,4]triazolo[1,5-a]pyridin-7-yloxy)-3-methylphenyl)amino)-7,8,11,12-tetrahydro-6,11-methanopyrimido[4,5′:5,6]pyrido[3,2-b][1,4,7]oxadiazecin-9 (10H)-yl)-4-(dimethylamino)but-2-en-1-one] | > 10000 nM | – | 32.8 nM |
